Measured values: publication PMC5428881 (Chemical communications (Cambridge, England), 2011)

Tested on: HeLa cells
Test: Cell permeability by fluorescence activated cell sorting
Format: cell-based
Details: FACS, 10 μM N-terminally fluorescein-conjugated peptide, 2 versus 1

Question: For LTFCRYWARLCS [compound 2], which “increase in mean fluorescence (cell permeability)” value is on record?
Answer: The value was 2.5 fold.
